Experimental findings from ChEMBL document CHEMBL1154350 (Bioorg Med Chem Lett, 2009) are described below.

The target of test [1] is T1, Succinyl-diaminopimelate desuccinylase (Haemophilus influenzae (strain ATCC 51907 / DSM 11121 / KW20 / Rd), UniProt P44514).
T1 sequence (P44514 whole entry): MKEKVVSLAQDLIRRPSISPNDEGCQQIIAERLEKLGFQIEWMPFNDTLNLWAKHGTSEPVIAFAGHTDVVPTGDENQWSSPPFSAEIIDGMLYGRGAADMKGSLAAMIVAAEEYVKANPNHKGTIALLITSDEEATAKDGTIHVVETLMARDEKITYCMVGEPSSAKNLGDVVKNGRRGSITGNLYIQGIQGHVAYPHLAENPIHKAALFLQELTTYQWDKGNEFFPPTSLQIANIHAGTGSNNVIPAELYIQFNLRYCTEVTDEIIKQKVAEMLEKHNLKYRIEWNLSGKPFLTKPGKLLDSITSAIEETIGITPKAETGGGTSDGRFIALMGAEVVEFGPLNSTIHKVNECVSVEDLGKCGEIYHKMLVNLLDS
In words: Inhibition of Haemophilus influenzae recombinant DapE.

Test [2] has as its system Escherichia coli. In words: Antibacterial activity against Escherichia coli at 1 mg by antibiotic plate assay. Format: functional, organism-based.
Test [3] concerns Escherichia coli. As to the kind of experiment: Antibacterial activity against Escherichia coli at 5 mg by antibiotic plate assay. It counts as functional, organism-based.
In test [4] the test system is Escherichia coli. As to the kind of experiment: Antibacterial activity against Escherichia coli at 20 mg by antibiotic plate assay. It counts as functional, organism-based.
The target of test [5] is T1, Succinyl-diaminopimelate desuccinylase. In words: Inhibition of Haemophilus influenzae recombinant DapE by non-competitive binding assay.
For test [6] the target is unchanged. In words: Inhibition of Haemophilus influenzae recombinant DapE by competitive binding assay.

Molecules are shown by their SMILES. Calls of active or inactive are those of the source. The rule behind the calls is not given here.

In the case of `NC(=S)Nc1ccccc1` [PHENYLTHIOUREA], in test [1], the IC50 (in general, the midpoint of a concentration-inhibition curve) was greater than 100 µM. Still for that read-out and setting: the value for `O=C(O)c1ccc(B(O)O)cc1` was greater than 10000 µM; that for `CC(=O)NO` [ACETOHYDROXAMIC ACID] was greater than 1000 µM; that for `CCCCB(O)O` [BUTYL BORONIC ACID] was roughly 10000 µM. Still for that read-out and setting: the value for `O=C(O)c1cccc(S)c1` was 34 µM. Same read-out and setting: next, `O=C(O)CCCS`: 43 µM. For the molecule `C[C@H](CS)C(=O)N1CCC[C@H]1C(=O)O`, the outcome with Escherichia coli [2], with Escherichia coli [3] and with Escherichia coli [4] was Active.

As for `CCOC(=O)[C@H](CCc1ccccc1)N[C@@H](C)C(=O)N1CCC[C@H]1C(=O)O`, the IC50 in test [1] was greater than 1000 µM. As to `OB(O)c1cccs1`, the IC50 in test [1] was 92 µM. Besides, the inhibitory constant (Ki) (in general, the dissociation constant of the complex between target and ligand, obtained from inhibition or displacement) in test [5] was 67 µM. As to `CC(C)(S)[C@H](N)C(=O)O`, the IC50 in test [1] amounted to 13.7 µM. Moreover, the inhibition constant Ki in test [6] was determined as 4.6 µM.

On to `O=C(O)CCP(=O)(O)O`, for which, in test [1], the IC50 was 1620 µM and the inhibition constant Ki came to 800 µM.

In the case of `CC(C)(S)[C@@H](N)C(=O)O` [PENICILLAMINE], the IC50 in test [1] was determined as 50 µM. Regarding `O=C(O)c1cccc(B(O)O)c1`, the IC50 in test [1] was greater than 10000 µM. Same read-out and setting: next, `O=C(NO)OCc1ccccc1`: greater than 1000 µM.
